Literature values in US10172922B2, “Rapid-acting insulin compositions” (Eli Lilly and Company, priority 2014, dated 2019).

Settings: on a molar basis

## 28^B-L-Lysine-29^B-L-proline human insulin [Insulin lispro]
  Potency relative to human insulin: equipotent to human insulin on a molar basis
